In the assay the target is T1, PE-labeled human PD-L1-Ig binding to Jurkat cell line over-expressing human PD-1 (Jurkat-PD-1) (Homo sapiens, UniProt Q15116).
T1 construct: expressed in transfected cells; host or cells: Jurkat
Nature of the assay: Jurkat-PD-1 Cell Binding High-Content Screening Assay (CBA): Method 1. The conditions noted are these: Jurkat-hPD-1 cells, PE-labeled PD-L1-Ig 20 nM final; read-out: Jurkat HPDL1 PD1 IC50 (uM) (Method 1).

Experimental findings from patent publication US20240409585A1, “MACROCYCLIC IMMUNOMODULATORS” (priority 2021, published 2024) are described below.

Bridge positions count the residues as written; N and C are the ends. Square brackets hold non-standard residues; d marks the D form. Peptide text beside a SMILES is read from it. * marks the point of attachment. ξ: configuration not given here. Phe(4-COOH) = N[C@@H](Cc1ccc(C(=O)O)cc1)C(=O)O; Bip = N[C@@H](Cc1ccc(-c2ccccc2)cc1)C(=O)O; Phe(2-CN) = N#Cc1ccccc1C[C@H](N)C(=O)O; Phe(3-Me) = Cc1cccc(C[C@H](N)C(=O)O)c1; hTyr = N[C@@H](CCc1ccc(O)cc1)C(=O)O; Val(3-OH) = CC(C)(O)[C@H](N)C(=O)O; 4Pal = N[C@@H](Cc1ccncc1)C(=O)O; Cha = N[C@@H](CC1CCCCC1)C(=O)O; Ile(3ξ) = CCC(C)[C@H](N)C(=O)O; Thr(3ξ) = CC(O)[C@H](N)C(=O)O; Carboxymethyl = O=C(O)C*; NMeA = CN[C@@H](C)C(=O)O; Orn = NCCC[C@H](N)C(=O)O; Pra = C#CC[C@H](N)C(=O)O; Dab = NCC[C@H](N)C(=O)O; ξL = CC(C)CC(N)C(=O)O

T1 sequence (Q15116 25-288): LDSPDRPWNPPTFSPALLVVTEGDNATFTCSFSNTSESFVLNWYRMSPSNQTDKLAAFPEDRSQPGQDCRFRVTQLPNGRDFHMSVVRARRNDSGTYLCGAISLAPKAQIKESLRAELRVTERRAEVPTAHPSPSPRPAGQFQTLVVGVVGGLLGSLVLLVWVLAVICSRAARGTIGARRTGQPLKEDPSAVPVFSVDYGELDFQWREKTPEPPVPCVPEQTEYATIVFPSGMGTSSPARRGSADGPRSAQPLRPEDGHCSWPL

For `CC(C)C[C@@H]1NC(=O)[C@H](Cc2c[nH]c3ccccc23)NC(=O)[C@H](CC(=O)O)NC(=O)[C@H](Cc2ccc(O)cc2)NC(=O)[C@H](Cc2ccccc2)NC(=O)CSC[C@@H](C(=O)N[C@@H](C)C(N)=O)NC(=O)[C@H](CO)NC(=O)[C@H](C(C)C)NC(=O)[C@H](CC(C)C)NC(=O)[C@H](CC(N)=O)NC(=O)[C@@H](Cc2ccccc2)NC(=O)[C@H](C)N(C)C(=O)[C@H](C(C)C)NC(=O)[C@H](Cc2ccc(-c3ccccc3)cc2)NC1=O` [Compound 1783] ({CH2CO}-FYDWL[Bip]V[NMeA][dF]NLVSCA-NH2; thioether N-14), the IC50 came to 0.09 µM. Take `CC(C)C[C@@H]1NC(=O)[C@H](Cc2c[nH]c3ccccc23)NC(=O)[C@H](CC(=O)O)NC(=O)[C@H](Cc2ccncc2)NC(=O)[C@H](Cc2ccc(OCC(=O)O)cc2)NC(=O)CSC[C@@H](C(=O)N[C@@H](CC(N)=O)C(N)=O)NC(=O)[C@H](CO)NC(=O)[C@H](C(C)C)NC(=O)[C@H](CC2CCCCC2)NC(=O)[C@H](CCN)NC(=O)[C@@H](CC(C)C)NC(=O)[C@H](C)N(C)C(=O)[C@H](C(C)C)NC(=O)[C@H](Cc2ccc(-c3ccccc3)cc2)NC1=O` [Compound 1901] ({CH2CO}-Y(Carboxymethyl)[4Pal]DWL[Bip]V[NMeA][dL][Dab][Cha]VSCN-NH2; thioether N-14): the IC50 is 0.01 µM. Take `CC(C)C[C@@H]1NC(=O)[C@H](CCCNC(=N)N)NC(=O)[C@@H](CC(C)C)NC(=O)[C@H](C)N(C)C(=O)[C@H](CCCNC(=N)N)NC(=O)[C@H](Cc2ccc(-c3ccccc3)cc2)NC(=O)[C@H](C(C)C)NC(=O)[C@H](Cc2c[nH]c3ccccc23)NC(=O)[C@H](CC(=O)O)NC(=O)[C@H](CCc2ccc(O)cc2)NC(=O)[C@H](Cc2ccccc2)NC(=O)CSC[C@@H](C(=O)N[C@@H](C)C(N)=O)NC(=O)[C@H]([C@@H](C)O)NC(=O)[C@H](C(C)C)NC1=O` [Compound 1106] ({CH2CO}-F[hTyr]DWV[Bip]R[NMeA][dL]RLVTCA-NH2; thioether N-14): the half-maximal inhibitory concentration (IC50) was 0.07 µM. Take `CC(C)C[C@H]1NC(=O)[C@H](C)N(C)C(=O)[C@H](C(C)C)NC(=O)[C@H](Cc2ccc(-c3ccccc3)cc2)NC(=O)[C@H](C(C)C)NC(=O)[C@H](Cc2c[nH]c3ccccc23)NC(=O)[C@H](CC(=O)O)NC(=O)[C@H](Cc2ccncc2)NC(=O)[C@H](Cc2ccc(OCC(=O)O)cc2)NC(=O)CSC[C@@H](C(N)=O)NC(=O)[C@H](CCCCN)NC(=O)[C@H](C(C)C)NC(=O)[C@H](CC2CCCCC2)NC(=O)[C@H](CC(N)=O)NC1=O` [Compound 2246] ({CH2CO}-Y(Carboxymethyl)[4Pal]DWV[Bip]V[NMeA][dL]N[Cha]VKC-NH2; thioether N-14): the half-inhibitory concentration (IC50) was found to be 0.03 µM. `CC(C)C[C@@H]1NC(=O)[C@H](Cc2c[nH]c3ccccc23)NC(=O)[C@H](CC(=O)O)NC(=O)[C@H](Cc2ccccc2C#N)NC(=O)[C@H](Cc2ccccc2)NC(=O)CSC[C@@H](C(=O)N[C@@H](C)C(N)=O)NC(=O)[C@H](CO)NC(=O)[C@H](C(C)C)NC(=O)[C@H](CC(C)C)NC(=O)[C@H](CC(N)=O)NC(=O)[C@@H](C)NC(=O)[C@H](C)N(C)C(=O)[C@H](C(C)C)NC(=O)[C@H](Cc2ccc(-c3ccccc3)cc2)NC1=O` [Compound 1806] ({CH2CO}-F[Phe(2-CN)]DWL[Bip]V[NMeA][dA]NLVSCA-NH2; thioether N-14): the IC50 came to 0.23 µM. Regarding `Cc1cccc(C[C@@H]2NC(=O)[C@H](CC(=O)O)NC(=O)[C@H](Cc3ccc(C(=O)O)cc3)NC(=O)[C@H](C(C)O)NC(=O)CSC[C@@H](C(=O)N[C@H](C(N)=O)C(C)(C)O)NC(=O)[C@H](CO)NC(=O)[C@H](C(C)(C)O)NC(=O)[C@H](CC3CCCCC3)NC(=O)[C@H](CCN)NC(=O)[C@@H](CC(C)C)NC(=O)[C@H](C)N(C)C(=O)[C@H](Cc3ccc(OCC(=O)O)cc3)NC(=O)[C@H](Cc3ccc(-c4ccccc4)cc3)NC(=O)[C@H](Cc3ccc(OCC(=O)O)cc3)NC2=O)c1` (stereo partly drawn) [Compound 2202] ({CH2CO}-[Thr(3ξ)][Phe(4-COOH)]D[Phe(3-Me)]Y(Carboxymethyl)[Bip]Y(Carboxymethyl)[NMeA][dL][Dab][Cha][Val(3-OH)]SC[Val(3-OH)]-NH2; thioether N-14), the IC50 was 0.5 µM. `CCC(C)[C@@H]1NC(=O)[C@H](Cc2ccc(-c3ccccc3)cc2)NC(=O)[C@H](C(C)C)NC(=O)[C@H](Cc2cccc(C)c2)NC(=O)[C@H](CC(=O)O)NC(=O)[C@H](Cc2ccc(OCC(=O)O)cc2)NC(=O)[C@H](C(C)O)NC(=O)CSC[C@@H](C(=O)N[C@@H](CCCN)C(N)=O)NC(=O)[C@H](C(C)O)NC(=O)[C@H](C(C)(C)O)NC(=O)[C@H](CC2CCCCC2)NC(=O)[C@H](CCN)NC(=O)[C@@H](CC(C)C)NC(=O)[C@H](C)N(C)C1=O` (stereo partly drawn) [Compound 2147] ({CH2CO}-[Thr(3ξ)]Y(Carboxymethyl)D[Phe(3-Me)]V[Bip][Ile(3ξ)][NMeA][dL][Dab][Cha][Val(3-OH)][Thr(3ξ)]C[Orn]-NH2; thioether N-14): the IC50 amounted to 0.01 µM.

`C#CC[C@H](NC(=O)CNC(=O)[C@@H]1CSCC(=O)N[C@@H](Cc2ccc(OCC(=O)O)cc2)C(=O)N[C@@H](Cc2ccc(C(=O)O)cc2)C(=O)N[C@@H](CC(=O)O)C(=O)N[C@@H](Cc2c[nH]c3ccccc23)C(=O)N[C@@H](CC(C)C)C(=O)N[C@@H](Cc2ccc(-c3ccccc3)cc2)C(=O)N[C@@H](C(C)C)C(=O)N(C)[C@@H](C)C(=O)N[C@H](CC(C)C)C(=O)N[C@@H](CCN)C(=O)N[C@@H](CC2CCCCC2)C(=O)N[C@@H](C(C)C)C(=O)N[C@@H](CO)C(=O)N1)C(=O)O` [Compound 1934] ({CH2CO}-Y(Carboxymethyl)[Phe(4-COOH)]DWL[Bip]V[NMeA][dL][Dab][Cha]VSCG[Pra]-OH; thioether N-14): the IC50 worked out at 0.01 µM. For `CCC(C)[C@@H]1NC(=O)[C@H](Cc2ccc(-c3ccccc3)cc2)NC(=O)[C@H](C(C)C)NC(=O)[C@H](Cc2c[nH]c3ccccc23)NC(=O)[C@H](CC(=O)O)NC(=O)[C@H](Cc2ccc(OCC(=O)O)cc2)NC(=O)[C@H](C(C)O)NC(=O)CSC[C@@H](C(=O)N[C@@H](CCN)C(N)=O)NC(=O)[C@H](C(C)O)NC(=O)[C@H](C(C)C)NC(=O)[C@H](CC2CCCCC2)NC(=O)[C@H](CCN)NC(=O)C(CC(C)C)NC(=O)[C@H](C)N(C)C1=O` (stereo partly shown) [Compound 2114] ({CH2CO}-[Thr(3ξ)]Y(Carboxymethyl)DWV[Bip][Ile(3ξ)][NMeA][ξL][Dab][Cha]V[Thr(3ξ)]C[Dab]-NH2; thioether N-14), the IC50 was found to be 0.02 µM. As to `CC(C)C[C@@H]1NC(=O)[C@H](Cc2c[nH]c3ccccc23)NC(=O)[C@H](CC(=O)O)NC(=O)[C@H](Cc2ccc(O)cc2)NC(=O)[C@H](Cc2ccccc2)NC(=O)CSC[C@@H](C(=O)N[C@@H](C)C(N)=O)NC(=O)[C@H](CO)NC(=O)[C@H](C(C)C)NC(=O)[C@H](CC(C)C)NC(=O)[C@H](CC(N)=O)NC(=O)[C@@H](C)NC(=O)[C@H](C)N(C)C(=O)[C@H](CCCNC(=N)N)NC(=O)[C@H](Cc2ccc(-c3ccccc3)cc2)NC1=O` [Compound 1781] ({CH2CO}-FYDWL[Bip]R[NMeA][dA]NLVSCA-NH2; thioether N-14), the IC50 turned out to be 0.08 µM.

As a reminder, the IC50 is the concentration that inhibits the measured activity by half.
